Data reported in US8288410B2, “3-substituted quinolinium and 7H-indolo[2,3-c]quinolinium salts as new antiinfectives” (Florida Agricultural and Mechanical University, priority 2008, dated 2012).
Structures can show the parent of a compound that is named as a salt. Where two headings read alike, the source gives them in different places.

Tests used:
[1] = tested on: Cryptococcus neoformans ATCC 90113; test: Antifungal susceptibility testing, Cryptococcus neoformans; type: cell-based
Procedure, shortened: (§1)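 Modified NCCLS broth microdilution, samples serially diluted from 20 μg/mL top concentration, inocula per 0.5 McFarland (C. albicans in SDB or RPMI 1640; C. neoformans in SDB; A. fumigatus in YM broth or RPMI-1640 + 5% Alamar Blue). IC50 from percent growth versus concentration; MIC read visually as lowest concentration without detectable growth.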

[2] = tested on: Aspergillus fumigatus ATCC 90906; test: Antifungal susceptibility testing, Aspergillus fumigatus; type: cell-based
Procedure, shortened: as §1

MRSA = test: Antibacterial susceptibility testing, MRSA; type: cell-based, methicillin resistant Staphylococcus aureus
Procedure, shortened: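 MRSA, sourced from the American Type Culture Collection, was tested for susceptibility with a modified National Committee for Clinical Laboratory Standards method. DMSO sample solutions were serially diluted in saline and placed in duplicate in 96 well microplates. Broth-diluted bacterial suspensions, standardized to 0.5 McFarland, brought each well to 200 μL, with the highest test concentration at 20 μg/mL.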

Vero Cells = test: Cytotoxicity, Vero cells; type: cell-based
[3] = tested on: Candida albicans ATTC 90028; test: Antifungal susceptibility testing, Candida albicans; type: cell-based
Procedure, shortened: as §1

SMILES	Cn IC50 ([1]; Table 2) [µg/mL]	Cn MFC ([1]; Table 2) [µg/mL]	Cn MIC ([1]; Table 2) [µg/mL]	A fu MFC [2] [µg/mL]	A fu MIC [2] [µg/mL]	A fu IC50 ([2]; Table 2, Aspergillus fumigatus) [µg/mL]	MRSA IC50 (MRSA; Table 2) [µg/mL]	MRSA MFC (MRSA; Table 2) [µg/mL]	MRSA MIC (MRSA; Table 2) [µg/mL]	TC50 Vero Cells (Vero Cells; Table 2) [µg/mL]	Ca IC50 ([3]; Table 2) [µg/mL]	Ca MFC ([3]; Table 2) [µg/mL]	Ca MIC ([3]; Table 2) [µg/mL]	other results
FC(F)(F)c1ccccc1Sc1cc2ccccc2[n+](CCCCCc2ccccc2)c1.[I-]	–	–	–	–	–	–	–	–	–	–	–	–	–	melting point: 227 to 229 °C
c1ccc(Nc2cc3ccccc3[n+](CCCCCC3CCCCC3)c2)cc1 (as salt: iodide) [JRE-3-19-1]	–	–	–	–	–	–	–	–	–	–	–	–	–	melting point: 156 to 158 °C
C[n+]1cc(N(CCCCCC2CCCCC2)c2ccc(C(F)(F)F)cc2)cc2ccccc21.[I-] [JRE-3-20-1]	0.65	3.1	1.6	6.3	3.1	1.0	0.40	1.6	0.78	25	0.65	3.1	1.6	–
C[n+]1cc(N(CCCCCC2CCCCC2)c2cccc(C(F)(F)F)c2)cc2ccccc21.[I-] [JRE-3-61-1]	0.85	2.5	1.3	10	2.5	1.5	0.45	1.3	0.63	>10	1.0	2.5	2.5	–
COc1ccc(N(CCCCCC2CCCCC2)c2cc3ccccc3[n+](C)c2)cc1.[I-] [JRE-3-68-1]	0.50	5.0	1.3	10	1.3	0.80	0.50	1.3	1.3	>10	0.80	1.3	1.3	–
COc1cccc(N(CCCCCC2CCCCC2)c2cc3ccccc3[n+](C)c2)c1.[I-] [JRE-3-69-1]	0.55	5.0	1.3	10	1.3	0.70	0.50	1.3	1.3	>10	0.85	2.5	2.5	–
C[n+]1cc2c(c3ccc(Cl)cc3n2CCCCCC2CCCCC2)c2ccccc21.[I-] [JRE-3-84-1]	–	–	–	5.0	2.5	–	–	–	–	–	–	–	–	Cn IC50 ([1]; Table 3): 0.80 µg/mL; Cn MFC ([1]; Table 3): 2.5 µg/mL; Cn MIC ([1]; Table 3): 1.3 µg/mL; A fu IC50 ([2]; Table 3, Aspergillus fumigatus): 1.5 µg/mL; MRSA IC50 (MRSA; Table 3): 0.80 µg/mL; MRSA MFC (MRSA; Table 3): 1.3 µg/mL; MRSA MIC (MRSA; Table 3): 1.3 µg/mL; TC50 Vero Cells (Vero Cells; Table 3): >10 µg/mL; Ca IC50 ([3]; Table 3): 0.70 µg/mL; Ca MFC ([3]; Table 3): 2.5 µg/mL; Ca MIC ([3]; Table 3): 1.3 µg/mL
Clc1cccc(Nc2cc3ccccc3[n+](CCCCCC3CCCCC3)c2)c1.[I-] [JRE-3-88-1]	2.0	50	3.1	–	6.3	3.5	0.55	1.6	0.78	12.5	2.0	13	6.3	–
C[n+]1cc(N(CCCCCC2CCCCC2)c2ccc(OC(F)(F)F)cc2)cc2ccccc21.[I-] [JRE-3-99-1]	0.70	1.3	1.3	2.5	2.5	0.95	0.65	1.3	1.3	>10	0.45	10	1.3	–
C[n+]1cc2c(c3ccccc3n2CCCCCC2CCCCC2)c2ccccc21.[I-] [JRE-3-100-1]	–	–	–	10	5.0	–	–	–	–	–	–	–	–	Cn IC50 ([1]; Table 3): 1.5 µg/mL; Cn MFC ([1]; Table 3): 5.0 µg/mL; Cn MIC ([1]; Table 3): 2.5 µg/mL; A fu IC50 ([2]; Table 3, Aspergillus fumigatus): 3.5 µg/mL; MRSA IC50 (MRSA; Table 3): 0.70 µg/mL; MRSA MFC (MRSA; Table 3): 1.3 µg/mL; MRSA MIC (MRSA; Table 3): 1.3 µg/mL; TC50 Vero Cells (Vero Cells; Table 3): >10 µg/mL; Ca IC50 ([3]; Table 3): 0.80 µg/mL; Ca MFC ([3]; Table 3): 10 µg/mL; Ca MIC ([3]; Table 3): 2.5 µg/mL
C[n+]1cc(N(CCCCCC2CCCCC2)c2cccc(Cl)c2)cc2ccccc21.[I-] [JRE-4-3-1]	0.85	5.0	1.3	10	2.5	1.0	0.80	2.5	1.3	>10	0.90	10	2.5	–
C[n+]1cc(N(CCCCCC2CCCCC2)c2ccc(Cl)cc2)cc2ccccc21.[I-] [JRE-4-9-1]	0.40	2.5	0.63	10	1.3	0.80	0.40	0.63	0.63	10	0.45	5.0	1.3	–
C[n+]1cc2c(c3ccc(C(F)(F)F)cc3n2CCCCCC2CCCCC2)c2ccccc21.[I-] [JRE-5-31-1]	–	–	–	10	5.0	–	–	–	–	–	–	–	–	Cn IC50 ([1]; Table 3): 0.85 µg/mL; Cn MFC ([1]; Table 3): 2.5 µg/mL; Cn MIC ([1]; Table 3): 1.3 µg/mL; A fu IC50 ([2]; Table 3, Aspergillus fumigatus): 1.5 µg/mL; MRSA IC50 (MRSA; Table 3): 0.70 µg/mL; MRSA MFC (MRSA; Table 3): 1.3 µg/mL; MRSA MIC (MRSA; Table 3): 1.3 µg/mL; TC50 Vero Cells (Vero Cells; Table 3): >10 µg/mL; Ca IC50 ([3]; Table 3): 0.80 µg/mL; Ca MFC ([3]; Table 3): — ((-) = >20 μg/mL); Ca MIC ([3]; Table 3): 1.3 µg/mL
FC(F)(F)c1cccc(Sc2cc3ccccc3[n+](CCCCCc3ccccc3)c2)c1.[I-] [XYZ-IV-54]	–	–	–	–	–	–	–	–	–	–	–	–	–	Cn IC50 ([1]; Table 1): 1.5 µg/mL; Cn MFC ([1]; Table 1): 20 µg/mL; Cn MIC ([1]; Table 1): 2.5 µg/mL; A fu IC50 ([2]; Table 1, Aspergillus fumigatus): 1.5 µg/mL; A fu MFC ([2]; Table 1, Aspergillus fumigatus): — ((-) = >20 μg/mL); A fu MIC ([2]; Table 1, Aspergillus fumigatus): 5.0 µg/mL; MRS IC50 (MRSA; Table 1): 0.85 µg/mL; MRS MFC (MRSA; Table 1): 10 µg/mL; MRS MIC (MRSA; Table 1): 2.5 µg/mL; TC50 Vero Cells (Vero Cells; Table 1): NC (NC = Not toxic at 10 μg/mL); Ca IC50 ([3]; Table 1): 6.0 µg/mL; Ca MFC ([3]; Table 1): — ((-) = >20 μg/mL); Ca MIC ([3]; Table 1): 10 µg/mL
